Test results: patent US7157477B2, “Aliphatic amino-substituted demethoxylated hypocrellins and their synthesis” (Altachem Pharma Ltd., priority 2000, dated 2007)
“Also recorded” adds a separate entry of the source.

Tests used:
HeLa cells [1] = experiment: Dark toxicity, MTT assay; format: cell-based; conditions: HB 15 min, 2-BA-2-DMHB 6 h; highest concentration tested 100 μM
Method: The dark toxicity characteristic of each compound was assessed separately following a similar procedure for cell exposure to graded doses of […] for 15 min or 2-BA-2-DMHB for 6 h. Precautions were taken to avoid exposure of the cells to light throughout the period when'the cells were exposed to, or contained, photosensitizers.

[2] = test system: EMT6 Ed mouse tumor cells; conditions: 24 J cm−2; Estey's results [8]; cited from earlier work
[3] = Singlet oxygen yield by DPA bleaching method; format: physicochemical; conditions: in DMSO
Method: (§1) Singlet oxygen yields were determined as previously reported by the DPA bleaching method. The electron spin resonance (ESR) measurement of, spin trapping of DMPO was used to determine the generation of O2 by hypocrellins.

AIDS = conditions: cited from earlier work
[4] = Absorption spectra of photosensitizers in chloroform; format: physicochemical; conditions: for log6 at first band λmax / log6 at second band λmax / log6 at third band λmax / λmax (nm), first band / λmax (nm), second band / λmax (nm), third band: in chloroform
[5] = Superoxide anion radical generation by DMPO spin-trapping ESR; format: physicochemical; conditions: in DMSO, relative to HB
Method: as §1
DMPO spin-trapping ESR measurement was used here to verify the formation of superoxide anion radical generated by photosensitization of HB and 2-BA-2-DMHB.

HeLa cells [6] = experiment: Sensitizer localization by fluorescence microscopy; format: cell-based; conditions: 4 μM; HB 15 min, 2-BA-2-DMHB 6 h
Method: Cells growing on glass were incubated in DMEM with 4 μM HB for 15 min or with 4 μM 2-BA-2-DMHB for 6 h at 37° C. Fluorescence was visualized by Nikon FXA microscope to assess sites of sensitizer location (excitation=400–450 nm, emission=600–650 nm).

HeLa cells [7] = conditions: for photopotentiation factor (LD50 dark / LD50 with 24 J cm−2 red light): MTT assay
Method: Stock sensitizer-DMSO solutions were diluted with DMEM containing 1% FBS. […] The cells were detached using 0.2% trypsin/0.5 mM EDTA solution in PBS and centrifuge-washed to remove unbound dyes. The cells were then transferred to 35-mm dishes (Costar)) 1 ml inch dish containing 3×10s cells, and irradiated with different doses of light. […] Immediately after irradiation, 2 ml DMEM containing 7.5% FBS was added to each dish. Then a portion of the cells was assessed for survival as follows and the rest were incubated in the medium until they could be checked for nucleus staining, DNA fragmentation and flow cytometry analysis.
Cell survival was estimated by the MTT assay [11,15,16]. PDT-treated cells were transferred into flat-bottomed 96-well plates (Costar) 100 μl in each well containing 1×10^4 cells and the cells were incubated at 37° C. in a. CO2, incubator for 20 h. Viability was determined by adding 10 μl MTT (10 mg ml^−1) to each well, and the mixture was incubated for 4 h at 37° C. Culture medium was then replaced with dimethylsulfoxide to dissolve the formazan crystals. […] Samples were measured in 12 replicates and each experiment was repeated at least twice. Survival of PDT-treated cells was normalized against cells incubated with photosensitizer alone.

[8] = in vivo; cited from earlier work
HeLa cells [9] = experiment: Flow cytometric detection of DNA fragmentation (PI staining); format: cell-based; conditions: for induction of apoptosis: evidenced by Hoechst staining, gel electrophoresis and flow cytometry; for hypoploid cell population: photosensitized cells
Method: Stock sensitizer-DMSO solutions were diluted with DMEM containing 1% FBS. […] The cells were detached using 0.2% trypsin/0.5 mM EDTA solution in PBS and centrifuge-washed to remove unbound dyes. The cells were then transferred to 35-mm dishes (Costar)) 1 ml inch dish containing 3×10s cells, and irradiated with different doses of light. The light source was a Red Light Treatment Instrument (Institute of Electronic Academia Sinica, China), Its total power output, more than 90% at 600–700 nm was 50 mW cm^2 at the position of the, samples, measured with BTY-8204 radiometer (Beijing Institute of Solar Energy, China). Immediately after irradiation, 2 ml DMEM containing 7.5% FBS was added to each dish. Then a portion of the cells was assessed for survival as follows and the rest were incubated in the medium until they could be checked for nucleus staining, DNA fragmentation and flow cytometry analysis.
A propidium iodide (PI) staining technique was used to assess the status of cellular DNA [19]. Cells were washed twice with ice-cold PBS and then permeabilized and fixed in 80% ethanol at 4° C. for 24 h. Cells were washed twice with PBS and suspended in PBS with RNase A (100 mg/ml) and incubated at 37° C. for 30 min. At this point the PI solution (10 mg/ml in PBS) was added to the cells in RNase solution, and the incubation was continued for 30 min at 4° C. After that, the cells were analyzed by Epics XL flow cytometer (Coulter, USA).

HeLa cells [10] = experiment: Distribution ratio (cellular uptake by fluorescence); format: cell-based; conditions: for distribution ratio [Sen/g cells]/[Sen/ml medium]: extra-cellular drug 0 to 5 μM, HB 15 min, 2-BA-2-DMHB 6 h, 37° C.
Method: HeLa cells were maintained as monolayer culture in DMEM containing 5% FBS and antibiotics PS (80 U/ml penicillin and 100 μg/ml streptomycin) at 37° C. in a humidified 5% CO2 incubator.
The distribution ratio or the photosensitizer is defined as [Sen/g cells]/[Sen/ml medium]. The values were measured as described previously. Exponentially growing cells were incubated in DMEM with HB for 15 min or with 2-BA-2-DMHB for 6 h at 37° C., ranging from 0 to 5 μM. […] The washed pellets (2×10^6) were dispersed in 3 ml of 10 mM Triton X-100 detergent. These solutions were excited at 460 nm and the fluorescence emission spectra were acquired using Hitachi-F4500 fluorescence spectrophotometer. Fluorescence at 610 nm was determined, corrected for the fluorescence of control (drug-free) sample, and compared with a standard fluorescence-intensity curve prepared with HB and 2-BA-2-DMHB solutions of known concentration.

HeLa cells [11] = experiment: DNA agarose gel electrophoresis (DNA ladder); format: cell-based; conditions: for DNA ladder, photosensitizer alone: 4 μM incubation, no light; for DNA ladder at early times: 3 and 6 h post-irradiation; for DNA ladder after photosensitization: 24 h after treatment at LD70 and LD90
Method: Stock sensitizer-DMSO solutions were diluted with DMEM containing 1% FBS. […] The cells were detached using 0.2% trypsin/0.5 mM EDTA solution in PBS and centrifuge-washed to remove unbound dyes. The cells were then transferred to 35-mm dishes (Costar)) 1 ml inch dish containing 3×10s cells, and irradiated with different doses of light. […] Immediately after irradiation, 2 ml DMEM containing 7.5% FBS was added to each dish.
The DNA was extracted as described previously [18] with some modification. Cells (2×106) were detached with the use of 0.2% trypsin/0.5 mM EDTA solution washed with PBS and pelleted by centrifugation. The cell pellets were suspended in lysis buffer consisting of 0.5% sodium dodecyl sulfate (SDS), 2 mM EDTA, 100 mg/ml proteinase K, and SO mM Tris-HC buffer (pH 8.0). After 24 h lysis at 37° C., the DNA was extracted with an equal volume of water-saturated phenol/chloroform/isoamyl alcohol (25:24:1). The aqueous phase was collected and DNA was precipitated with 0.5 volume ammonium acetate and 2.5 volumes cold absolute ethanol, and stored overnight at −20° C. The DNA was dissolved in TE (0.5 M EDTA in 1 M Tris-HCl buffer, pH 8.0) and incubated with DNase-free RNase A (100 mg/ml) at 37° C. for 1 h. The samples were electrophoresed for 3 h at 60 V in 1.5% agarose gel containing 0.5 μg ml^−1 ethidium bromide and visualized by UV transillumination.

HeLa cells [12] = experiment: Hoechst 33342 nuclear staining for apoptotic nuclei; format: cell-based
Method: Treated and control cells were incubated in DMEM with 0.5% FBS for 24 h at 37° C., then collected by detachment and centrifugation and incubated in a growth medium (FBS free) containing 5 μM H0342 for 5 min at 37° C. Nuclear fragmentation was assessed by fluorescence microscopy using Nikon FxA microscope. The EX wavelength was 330–380 nm with EM monitored at 420–450 nm.

Row | SMILES | LD50 in the dark (HeLa cells [1]) | log6 at first band λmax [4] | log6 at second band λmax [4] | log6 at third band λmax [4] | λmax (nm), first band [4] | λmax (nm), second band [4] | λmax (nm), third band [4] | sites of sensitizer localization (HeLa cells [6]) | photopotentiation factor (LD50 dark / LD50 with 24 J cm−2 red light) (HeLa cells [7]) | toxicity in animals [8] | induction of apoptosis (HeLa cells [9]) | hypoploid cell population (HeLa cells [9]; LD90) | distribution ratio [Sen/g cells]/[Sen/ml medium] (HeLa cells [10]) | DNA ladder, photosensitizer alone (HeLa cells [11]) | DNA ladder at early times (HeLa cells [11]) | DNA ladder after photosensitization (HeLa cells [11]) | also measured
1 | COc1c(O)c2c(=O)cc(OC)c3c4c(OC)cc(=O)c5c(O)c(OC)c6c(c(c1CC(C)=C6C(C)=O)c23)c54 [HB, 3,10-dihydroxyl-4,9-dione-1,12-(2′-methyl-3′-actyl-2′,3′-dehydro)propilidene(1′,3′)-2,6,7,11-tetramethoxyl-perylene, reference compound] | about 20 μM | 4.06 | 3.70 | 3.52 | 466 nm | 548 nm | 580 nm | prominent lysosomal uptake, and endoplasmic reticulum (ER) staining; also recorded: mainly localized at lysosomal and endoplasmic reticulum | 10 fold | low toxicity | induced apoptosis | appearance of hypoploid cell population | 49.1±2.2 | No DNA ladder was observed | No obvious DNA ladder was detected | characteristic DNA ladder observed | photopotentiation factor [2]: 10; Quantum yields (1O2), singlet oxygen yield [3]: 0.76; anti-AIDS action (AIDS): distinct anti-AIDS action; Relative quantum yields (O2−) [5]: 1
2 | COc1c(O)c2c(=O)cc(OC)c3c4c(OC)cc(=O)c5c(O)c(OC)c6c(c(c1CC(C)(O)C6C(C)=O)c23)c54 (stereo not drawn) [hypocrellin A, 3,10-dihydroxyl-4,9-dione-1,12-(2′-hydroxyl-2′-methyl-3′-actyl)propilidene(1′,3′)-2,6,7,11-tetramethoxyl-perylene] | – | – | – | – | – | – | – | – | – | low toxicity | – | – | – | – | – | – | –
3 | CCCCNc1c(O)c2c(=O)cc(OC)c3c4c(OC)cc(=O)c5c(O)c(OC)c6c(c(c1C(C(C)=O)=C(C)C6)c23)c54 [Example 2-BA-2-DMHB, 2-butylamino-2-demethoxy-hypocrellin B] | more than 100 μM | 4.06 | 4.09 | 4.10 | 463 nm | 583 nm | 621 nm | primarily at ER; also recorded: mainly localized at endoplasmic reticulum | more than 250 fold | – | induced apoptosis | appearance of hypoploid cell population | 107.2±4.3 | No DNA ladder was observed | No obvious DNA ladder was detected | characteristic DNA ladder observed | extinction coefficient at 583 nm relative to HB at 548 nm [4]: 2.5 fold; extinction coefficient at 621 nm relative to HB at 580 nm [4]: over 3.8 fold; Relative quantum yields (O2−) ([5]; listed as 2-BA-2-DMHD): 2.7; nuclear morphology in the absence of light irradiation (HeLa cells [12]; 4 μM, 6 h, dark control): remained intact; apoptotic nuclei after photosensitization (HeLa cells [12]; LD70, 24 h post-irradiation): apoptotic nuclei were detected; photopotentiation relative to HB (HeLa cells [7]; in vitro): over 25 fold; concentration causing 50% cytotoxicity at light dose of 24 J cm−2 (HeLa cells [7]; red light 24 J cm−2): 0.25–0.5 FM; speed of apoptosis induction (HeLa cells [9]; post-irradiation, LD90): induced apoptosis more quickly than HB; intra-cellular level relative to HB (HeLa cells [10]; equimolar levels of the drugs): approximately two fold as much as HB; also recorded: approximately two times as much as that of HB
